Tested on: SE-spezifischer rosettenbildender Zellen
Assay: Rosette test (SE-specific rosettes)
Assay type: in vivo, Maus (Inzuchtstamm CBA)
Conditions: oral administration
Source text: Der Nachweis immunstimulierender Effekte wurde weiterhin an der Maus (Inzuchtstamm CBA) und u. a. mit Hilfe folgender Nachweismethoden geführt: • Plaque-Test zum Nachweis von SE-spezifischen IgM- und IgG-PBZ, • Rosettentest.
Aus den Werten wird deutlich, daß die Verbindungen der allgemeinen Formel I einen gut nachweisbaren Effekt auf die Effektor-T-Lymphozyten-abhängige verzögerte Uberempfindlichkeit haben. Kontaktdermatitis-Werte ab 120 (≙ 20 % Steigerung gegenüber der Kontrolle) bzw. unter 80 werden als Nachweis eines stimulatorischen bzw. suppressorischen Effektes angesehen. Antikörpertiter-Differenzen von >+1 bzw. <-1 verdeutlichen den stimulatorischen bzw. suppressorischen Effekt der Substanzen auf die humorale Immunantwort. 2. Untersuchungen zur immunstimulierenden Wirkung • 2.1 Plaque-Test zum Nachweis von SE-spezifischen IgM- und IgG-PBZ Zur Prüfung immunstimulierender Effekte wurde u. a. auch der Einfluß von Verbindungen der allgemeinen Formel I auf die humorale Immunantwort an Mäusen des Inzuchtstammes CBA und mittels Hämolyse-Plaque-Test (HPT) untersucht. Diese Technik erlaubt die quantitative und getrennte Erfassung IgM- und IgG-Antikörper produzierender Zellen (= Plaque bildende Zellen; PBZ). Die Immunisierung mit Schaferythrozyten (SE) erfolgte am Tag 0, die Substanzapplikation (Tagesdosis 1.10^-5 mol/kg Körpermasse; peroral) an den Tagen -1 bis +3 (zur Erfassung der IgM-PBZ) bzw. an den Tagen +1 bis +5 (zur Erfassung der IgG-PBZ). • 2.2 Ergebnisse: Durch tägliche und über 5 Tage gehende Gabe von 2,0 mg der Verbindung gemäß Beispiel 1 pro kg Körpermasse konnte die Zahl der IgM-PBZ auf einen Durchschnittswert von 352 % im Vergleich zur Kontrolle (100 %) gesteigert werden. Die gleiche Form der Behandlung führte zu einer Erhöhung der IgG-PBZ auf 497 % (Kontrolle: 100 %). In beiden Fällen erwies sich die Differenz zur Kontrolle im t-Test mit p < 0,001 als signifikant. […]

## COc1cc2[nH]c(=O)n(CCCS)c(=O)c2cc1OC [Beispiel 2, 3-(3-Mercaptoprop-1-yl)-6,7-dimethoxychinazolin-2,4(1H,3H)-dion]
  SE-spezifischer rosettenbildender Zellen: signifikante Förderung

From EP0454060B1, “3-(Mercaptoalkyl)-quinazoline-2,4(1H,3H)-diones, processes for their preparation, and pharmaceutical compositions” (priority 1990, dated 1991)
